This passage reports IC50 results from ChEMBL document CHEMBL1136197, “Anilinopyrazole as selective CDK2 inhibitors: design, synthesis, biological evaluation, and X-ray crystallographic analysis” (Bioorg Med Chem Lett, 2003).

Assay [1] has as its target Cyclin-dependent kinase 2 (Homo sapiens, UniProt P24941). The experiment in a line: In vitro inhibition of Cyclin-dependent kinase 2 was determined.
Assay [2] addresses Cyclin-dependent kinase 1 (Homo sapiens, UniProt P06493). In words: Inhibition of Cyclin-dependent kinase 1.

Sequence of Cyclin-dependent kinase 1 (P06493 whole entry): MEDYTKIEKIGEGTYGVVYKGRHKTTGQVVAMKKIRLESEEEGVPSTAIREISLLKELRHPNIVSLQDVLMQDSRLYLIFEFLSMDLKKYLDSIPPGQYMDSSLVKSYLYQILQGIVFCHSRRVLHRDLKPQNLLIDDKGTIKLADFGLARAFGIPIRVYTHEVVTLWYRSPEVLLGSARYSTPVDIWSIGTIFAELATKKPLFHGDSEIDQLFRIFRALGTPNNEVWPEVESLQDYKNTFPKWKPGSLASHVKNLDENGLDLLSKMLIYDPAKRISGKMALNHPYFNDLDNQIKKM

`COc1ccc(-c2cc(Nc3ccc(S(N)(=O)=O)cc3)[nH]n2)cc1F`: inhibition in assay [1] was half-maximal at 407 nM (IC50).

As to `NS(=O)(=O)c1ccc(Nc2cc(-c3cccc(N4CCOCC4)c3)n[nH]2)cc1`, the IC50 (in general, the concentration that inhibits the measured activity by half) in assay [1] was found to be 490 nM.

In turn, `NS(=O)(=O)c1ccc(Nc2cc(-c3cccc(Br)c3)n[nH]2)cc1` displayed a half-maximal inhibitory concentration (IC50) in assay [1] of 23.4 nM.

On to `NS(=O)(=O)c1ccc(Nc2cc(-c3ccc(F)cc3)n[nH]2)cc1`, for which, in assay [1], the IC50 turned out to be 17.4 nM.

In assay [1], `NS(=O)(=O)c1ccc(Nc2cc(-c3ccc([N+](=O)[O-])cc3)n[nH]2)cc1` registered an IC50 of 0.33 nM.

In the case of `NS(=O)(=O)c1ccc(Nc2cc(-c3cccc(NS(=O)(=O)c4ccccc4)c3)n[nH]2)cc1`, the IC50 was found to be 501 nM in assay [2] and 10.7 nM in assay [1].

Take `COc1cccc(-c2cc(Nc3ccc(S(N)(=O)=O)cc3)[nH]n2)c1`: the IC50 in assay [2] amounted to 398 nM; in assay [1], 24.5 nM.

In assay [1], `Nc1cccc(-c2cc(Nc3ccc(S(N)(=O)=O)cc3)[nH]n2)c1` displayed a concentration for half-maximal inhibition (IC50) of 166 nM.

Take `NS(=O)(=O)c1ccc(Nc2cc(-c3ccc(Br)cc3)n[nH]2)cc1`: the concentration for half-maximal inhibition (IC50) is 126 nM in assay [2] and 10 nM in assay [1].

On to `Nc1ccc(-c2cc(Nc3ccc(S(N)(=O)=O)cc3)[nH]n2)cc1`, for which the IC50 was determined as 501 nM in assay [2] and 0.34 nM in assay [1].

For `NS(=O)(=O)c1ccc(Nc2cc(-c3cccc(NC(=O)Nc4cc(C(F)(F)F)ccc4F)c3)n[nH]2)cc1`, the figures for the IC50 in assay [2] and in assay [1] were 794 nM and 61.6 nM, respectively.

In assay [1], `CN(C)c1ccc(-c2cc(Nc3ccc(S(N)(=O)=O)cc3)[nH]n2)cc1` displayed an IC50 of more than 2000 nM.

With `NS(=O)(=O)c1cccc(Nc2cc(-c3ccc(F)cc3)n[nH]2)c1`, half-maximal inhibition in assay [1] (IC50) required 871 nM.

Compound `CS(=O)(=O)Nc1ccc(Nc2cc(-c3cccc(Br)c3)n[nH]2)cc1` yielded a half-inhibitory concentration (IC50) in assay [1] of 602 nM.

As to `CS(=O)(=O)Nc1cccc(-c2cc(Nc3ccc(S(N)(=O)=O)cc3)[nH]n2)c1`, the IC50 in assay [2] is 501 nM; in assay [1], 10.7 nM.

As to `NS(=O)(=O)c1ccc(Nc2cc(-c3cccc(O)c3)n[nH]2)cc1` [GW831090X], the results for the concentration for half-maximal inhibition (IC50) in assay [2] and in assay [1] were 398 nM and 9.1 nM, respectively.

`NS(=O)(=O)c1ccc(Nc2cc(-c3ccc(O)c(F)c3)n[nH]2)cc1` [GW831091X]: the IC50 in assay [2] came to 200 nM; in assay [1] it was 12.6 nM.
